The source made the active and inactive calls.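 The calls were made as follows: active = mean IC50 below 20 µM in each of the two panels, so potent in both; inactive = the rest.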
Target: Neuropilin-1 (Homo sapiens) (UniProt O14786)
Assay: NRP-1 b1b2 CendR peptide binding inhibitors, dose response, biochemical, FP and AlphaScreen panel (AID 651650)
Conditions: NRP-1 b1b2 / RPARPAR peptide binding, FP or AlphaScreen
[1] = AlphaScreen, run 1, individual panel run IC50
[2] = FP, run 1, individual panel run IC50
[3] = FP, run 2, individual panel run IC50

Sequence of Neuropilin-1 (Homo sapiens) (O14786 whole entry, looked up): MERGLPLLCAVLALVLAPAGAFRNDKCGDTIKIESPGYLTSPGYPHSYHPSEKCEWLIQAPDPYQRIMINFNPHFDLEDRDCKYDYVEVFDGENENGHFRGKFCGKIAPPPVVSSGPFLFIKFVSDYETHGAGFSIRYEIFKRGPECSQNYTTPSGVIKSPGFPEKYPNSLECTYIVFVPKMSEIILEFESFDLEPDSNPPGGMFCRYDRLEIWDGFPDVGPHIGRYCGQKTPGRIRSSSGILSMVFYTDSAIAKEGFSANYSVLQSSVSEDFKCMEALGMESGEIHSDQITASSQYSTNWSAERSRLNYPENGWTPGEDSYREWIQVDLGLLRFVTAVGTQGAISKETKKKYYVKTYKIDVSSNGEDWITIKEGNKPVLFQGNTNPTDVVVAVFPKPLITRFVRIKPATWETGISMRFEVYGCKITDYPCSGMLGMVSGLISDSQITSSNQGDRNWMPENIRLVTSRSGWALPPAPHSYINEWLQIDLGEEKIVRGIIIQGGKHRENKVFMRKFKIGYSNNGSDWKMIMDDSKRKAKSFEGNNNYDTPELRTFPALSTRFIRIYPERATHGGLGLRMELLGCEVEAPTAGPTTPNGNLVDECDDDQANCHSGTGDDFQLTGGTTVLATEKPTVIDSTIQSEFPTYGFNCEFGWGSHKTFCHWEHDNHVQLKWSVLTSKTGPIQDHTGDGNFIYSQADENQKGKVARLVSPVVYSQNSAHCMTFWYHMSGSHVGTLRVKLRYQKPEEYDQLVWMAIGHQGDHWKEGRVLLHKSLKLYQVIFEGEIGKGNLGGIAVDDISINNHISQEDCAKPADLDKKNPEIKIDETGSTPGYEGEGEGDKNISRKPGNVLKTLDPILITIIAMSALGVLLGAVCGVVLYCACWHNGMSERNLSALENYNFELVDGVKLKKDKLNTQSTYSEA

| SMILES | IC50 (AlphaScreen, mean of runs) | IC50 [1] [µM] | IC50 (FP, mean of runs) | IC50 [2] [µM] | IC50 [3] [µM] |
| --- | --- | --- | --- | --- | --- |
| CC(Oc1ccccc1)C(=O)NC1=NCCS1 (stereo not given) | > 100 µM (inactive) | > 100 | > 95 µM (inactive) | > 95 | > 95 |
| COc1c2ccc(C(=O)NCc3cc(C(F)(F)F)cc(C(F)(F)F)c3)cc2nn1C | > 100 µM (inactive) | > 100 | > 95 µM (inactive) | > 95 | > 95 |
| O=[N+]([O-])c1ccc(-n2nnnc2CN2CCCCC2)cc1 | > 100 µM (inactive) | > 100 | > 95 µM (inactive) | > 95 | > 95 |
| COc1ccc(C(O)c2nc(-c3ccc4ccccc4c3)cs2)cc1 (stereo not given) | > 100 µM (inactive) | > 100 | > 95 µM (inactive) | > 95 | > 95 |
| CC(=O)C(C(c1ccccc1)N1CCCc2ccccc21)N1CCOCC1 (stereo not given) | inactive | 72.2 | > 95 µM (inactive) | > 95 | > 95 |
| COc1ccc(Nc2nc(-c3cccnc3)nc3ccccc23)cn1 | inactive | 54.7 | > 95 µM (inactive) | > 95 | > 95 |
| COc1cc2c(cc1OC)C(Nc1ccc(S(N)(=O)=O)cc1)=NC(C)(C)C2 | inactive | 51.8 | > 95 µM (inactive) | > 95 | > 95 |
| CCc1onc(C)c1C(=O)Nc1cc(C)ccc1OC | 16 µM | 16 | > 95 µM (inactive) | > 95 | > 95 |
| COC(=O)c1c(NC(=O)CN(c2ccccc2)S(C)(=O)=O)sc2c1CCCC2 | 15.5 µM | 15.5 | > 95 µM (inactive) | > 95 | > 95 |
| O=C(CSc1nc2ccccc2n1Cc1ccccc1Cl)N/N=C/c1ccccc1C(=O)O | inactive | 39.2 | > 95 µM (inactive) | > 95 | > 95 |
| C=C(C)COc1ccc(-c2[nH]ncc2-c2ccccc2)c(O)c1 | > 100 µM (inactive) | > 100 | > 95 µM (inactive) | > 95 | > 95 |
| CCCCC1CCC(C(=O)NC2CCS(=O)(=O)C2)CC1 (stereo not given) | > 100 µM (inactive) | > 100 | > 95 µM (inactive) | > 95 | > 95 |
| COc1ccccc1N1CCN(C(=O)C2c3ccccc3Oc3ccccc32)CC1 | > 100 µM (inactive) | > 100 | > 95 µM (inactive) | > 95 | > 95 |
| Cc1ccc(C2(O)CCN3CCCCC32)cc1 (stereo not given) | > 100 µM (inactive) | > 100 | > 95 µM (inactive) | > 95 | > 95 |
| CCn1c(N)c(C(=O)NCc2cccnc2)sc1=S | 13 µM | 13 | inactive | > 95 | 30.1 |
| CN(C(=O)COC(=O)c1nc(-c2ccccc2)n(-c2ccccc2)n1)C1CCS(=O)(=O)C1 (stereo not given) | > 100 µM (inactive) | > 100 | > 95 µM (inactive) | > 95 | > 95 |
| O=C(CSC1CN(C(c2ccccc2)c2ccccc2)C1)N/N=C/c1ccccc1 | 5.56 µM | 5.56 | > 95 µM (inactive) | > 95 | > 95 |
| O=C(Cn1ccc(NC(=O)OCc2ccccc2)nc1=O)NCCCn1ccnc1 | > 100 µM (inactive) | > 100 | > 95 µM (inactive) | > 95 | > 95 |
| CC(C)OC(=O)CSc1nnc(-c2ccccn2)n1-c1ccccc1 | > 100 µM (inactive) | > 100 | > 95 µM (inactive) | > 95 | > 95 |
| Cc1ccc(C(=O)N2CCN(C34CC5CC(CC(C5)C3)C4)CC2)o1 | inactive | 75.4 | > 95 µM (inactive) | > 95 | > 95 |
| O=C(c1ccccn1)N1CCN(S(=O)(=O)c2ccccc2)CC1 | inactive | 27.8 | > 95 µM (inactive) | > 95 | > 95 |
| O=C(O)c1ccc(C(=O)Nc2cccc3ccccc23)c(C(=O)O)c1 | inactive | 49.3 | > 95 µM (inactive) | > 95 | > 95 |
| CC(=O)NCCNc1nc(NC(C)C)nc2ccsc12 | > 100 µM (inactive) | > 100 | > 95 µM (inactive) | > 95 | > 95 |

— PubChem BioAssay AID651650 (Sanford-Burnham Center for Chemical Genomics, 2012)
